Measurements from PMC11273618, “Multianalytical Approach to Understand Polyphenol-Mal d 1 Interactions to Predict Their Impact on the Allergenic Potential of Apples” (Journal of Agricultural and Food Chemistry, 2024).

What was measured:
[1] = molecular target: T1, r-Mal d 1.01 (recombinant Mal d 1.0108) (Malus domestica, UniProt Q9SYW3); experiment: 1H-15N-HSQC NMR chemical shift perturbation; format: binding; details: 50 mM phosphate pH 7, 10% D2O, 25 °C; 100 μM 15N-protein, 0.1-2 mM ligand; no specific site, scattered over surface
T1 construct: gene MALD1; 15N-labelled in M9 medium for HSQC NMR; one cysteine (Cys107)
T1 sequence (Q9SYW3 1-159): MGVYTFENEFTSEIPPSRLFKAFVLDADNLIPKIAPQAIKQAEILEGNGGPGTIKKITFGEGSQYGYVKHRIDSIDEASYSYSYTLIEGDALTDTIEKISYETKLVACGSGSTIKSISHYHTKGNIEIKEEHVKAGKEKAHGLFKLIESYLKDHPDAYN

[2] = molecular target: T1, r-Mal d 1.01 (recombinant Mal d 1.0108); experiment: isothermal titration calorimetry, independent model; details: 0.1 M sodium phosphate pH 7, 25 °C; 0.2 mM protein, 4 mM ligand injected; stoichiometry fixed at n = 1; weak nonspecific surface binding; unreliable
[3] = molecular target: T1, r-Mal d 1.01 (recombinant Mal d 1.0108); experiment: untargeted bottom-up LC-MS of tryptic peptides; format: binding; details: covalent; Michael addition at Cys107 (peptide LVACGSGSTIK) via o-quinone formed by autoxidation; excess ligand in water, 20 min, room temperature

O=C(/C=C/c1ccc(O)c(O)c1)O[C@@H]1C[C@](O)(C(=O)O)C[C@@H](O)[C@H]1O [CA, chlorogenic acid] was tested, and the “1H-15N-HSQC NMR chemical shift perturbation” value [1] was “CA showed by far the strongest impact on the protein surface”.
With Oc1cc(O)c2c(c1)O[C@H](c1ccc(O)c(O)c1)[C@@H](O)C2 [CAT, (+)-catechin] the KD [2] was 500 ± 0 µM.
Oc1cc(O)c2c(c1)O[C@H](c1ccc(O)c(O)c1)[C@H](O)C2 [EC, (−)-epicatechin] was tested, and the “% modification of Cys107 peptide” value [3] was ~ 30% and the KD [2] was 1400 µM.
For Oc1cc(O)c2c(c1)O[C@H](c1ccc(O)c(O)c1)[C@H](O)[C@H]2c1c(O)cc(O)c2c1O[C@H](c1ccc(O)c(O)c1)[C@@H](O)C2 [PC B1, procyanidin B1], the KD [2] was 1200 ± 200 µM.
For Oc1cc(O)c2c(c1)O[C@H](c1ccc(O)c(O)c1)[C@H](O)[C@H]2c1c(O)cc(O)c2c1O[C@H](c1ccc(O)c(O)c1)[C@H](O)C2 [PC B2, procyanidin B2], the KD [2] was 600 ± 0 µM.
